According to patent US7238469B2, “Carbon monoxide improves outcomes in tissue and organ transplants and suppresses apoptosis” (priority 2001, dated 2007):

Legend:
HO enzymatic activity = HO enzymatic activity (bilirubin generation in microsomes) of transplanted hearts; format: in vivo, mouse hearts transplanted into rats; conditions: 2 days after transplantation
Description: HO enzymatic activity was measured by bilirubin generation in heart and liver microsomes. Animals were sacrificed, and the liver and hearts were flushed with ice-cold PBS and frozen at −70° C. until used. Organs were homogenized in four volumes of sucrose (250 mM) Tris-HCl (10 mM/L) buffer (pH 7.4) on ice and centrifuged (28,000 RPM 3×, 20 min, 4° C.). The supernatant was centrifuged (105,000 RPM 3×, 60 min, 4° C.), and the microsomal pellet was resuspended in MgCl2 (2 mM)-potassium phosphate (100 mM) buffer (pH 7.4) and sonicated on ice. The samples (1 mg of protein) were added to the reaction mixture (400 îl) containing rat liver cytosol (2 mg of protein), hemin (50 îM), glucose-6-phosphate (2 mM), glucose-6-phosphate dehydrogenase (0.25 U), and NADPH (0.8 mM) for 60 min at 37° C. in the dark. The formed bilirubin was extracted with chloroform and, OD was measured at 464–530 nm (extinction coefficient, 40 mM/cm for bilirubin). Enzyme activity is expressed as picomoles of bilirubin formed per milligram of protein per 60 min (pmol/mg/h). The protein concentration was determined by the bicinchoninic acid protein assay (Pierce, Georgetown). The background was ˜5 pmol/mg/h. […] Carboxyhemoglobin was measured 2 days after transplantation by using a Corning 865 blood gas analyzer (Clinical Chemistry, Massachusetts General Hospital, Boston, Mass.).

[1] = system: mouse hearts transplanted into rats; assay: Histomorphometric analysis of infarcted area in transplanted hearts; format: in vivo, BALB/c mouse hearts, Lewis rats; conditions: 3 days after transplantation; SnPPIX treated rats that received exogenous CO
Source text: Grafts were harvested 3 days after transplantation, […], and serially sectioned (5 îm) in toto from the apex to the base. Ten sections were placed per slide in a total of about 20–25 slides. Every fifth slide was stained with hematoxylin and eosin (H&E) for histomorphometric analysis. Two images per slide were captured by using a Nikon Eclipse E600O microscope (Nikon, Melville, N.Y.) connected to a Hitachi 3-CCD Color Camera (model HV-C20; Hitachi, Tokyo, Japan) and to a Power MacintoshO 7300/200 computer (Apple Computer, Cupertino, Calif.) equipped with IPLab Spectrum digital imaging software (Signal Analytics Corporation, Vienna, Va.). About 50 images were captured from each transplanted heart from two to three animals per group. Images were analyzed by manual segmentation, tracing the infarcted and noninfarcted areas from the right and left ventricles in each section. Areas corresponding to infarcted and noninfarcted tissue were calculated by digital imaging software as number of pixels corresponding to those areas. Infarcted and noninfarcted areas were then calculated as percentage of total area. Pooled data for each group, expressed as area in pixels or as percentage of infarction, was analyzed by using ANOVA. […] Results are expressed as mean=SD. […]

[2] = water at 0° C.; cited from earlier work
[3] = system: mouse 2F–2B endothelial cells; assay: Cellular ELISA for anti-graft Abs and rat C3 binding to mouse endothelial cells; format: in vivo; conditions: rats with mouse cardiac graft under CVF plus CsA
Description: Serum levels of rat anti-mouse Abs were measured by cellular-based indirect ELISA. The mouse 2F–2B endothelial cell line (CRL-2168; American Type Culture Collection (ATCC), Manassas, Va.) was used as an antigenic target. Briefly, 2F–2B cells were cultured in DMEM (Life Technologies, Rockville, Md.), 10% FCS, 100 U/ml penicillin, and 100 îg/ml streptomycin (Life Technologies). Glutaraldehyde-fixed 2F–2B cells were incubated (1 h, 37° C.) in the presence of rat serum serially diluted in PBS 0.05% Tween 20 (Sigma) and rat anti-mouse Abs were detected by using mouse anti-rat IgM (MARM-4), IgG1 (MARG1-2), IgG2a (Marg2a-1), IgG2b (MARGb-8), or IgG2c (MARG2c-5) (kind gifts from Prof. H. Bazin, University of Louvain, Brussels, Belgium). Mouse anti-rat Abs were detected by using HRP-labeled goat anti-mouse Fab′ depleted of anti-rat Ig cross reactivity (0.1 îg/ml, 1 h, room temperature; Pierce, Rockford, Ill.). […] Absorbance was measured at Î=490 nm. The relative amount of circulating anti-graft Abs in the serum was expressed as OD (Î=490) taken from one serial dilution in the linear range of the assay (1:32–1:1024).
Binding of rat C3 to mouse endothelial cells was measured by a modified cellular ELISA with mouse 2F–2B endothelial cells as antigenic targets (Miyatake et al, J. Immunol. 160:4114, 1998). Briefly, nonfixed 2F–2B endothelial cells were incubated in the presence of rat serum serially diluted in GVB^++ buffer (1 h, 37° C.). Cells were fixed in PBS, 0.05% glutaraldehyde, and rat C3 deposition was detected by using a mouse anti-rat C3 mAb (Serotec).

HO-1 = assay: Western blot of HO-1 expression in cultured endothelial cells; format: cell-based, mouse; conditions: data not shown
Description: Endothelial cells were washed in PBS (pH 7.2), harvested by scraping, and lysed in Laemmli buffer. Electrophoresis was conducted under denaturing conditions with 10% polyacrylamide gels. Proteins were transferred onto a polyvinyldifluoridine membrane (immobilon P; Millipore, Bedford, Mass.) by electroblotting and detected with rabbit polyclonal Abs directed against human HO-1 or HO-2 (StressGen, Victoria, Canada) or é-tubulin (Boehringer Mannheim, Mannheim, Germany). Proteins were visualized by using HRP-conjugated donkey anti-rabbit IgG or goat anti-mouse IgG (Pierce) and the ECL assay (Amersham Life Science, Arlington Heights, Ill.) according to manufacturer's instructions.

Compound | total HO enzymatic activity in transplanted mouse hearts (HO enzymatic activity; rats treated with SnPPIX and exposed to CO) | infarction of the left ventricle [1] | infarction of the right ventricle [1] | saturation point [2] | influence on C3 deposition on mouse endothelial cells [3] | influence on anti-mouse Ab (IgM) response [3] | total HO enzymatic activity in transplanted mouse hearts (HO enzymatic activity) | expression of HO-1 in cultured endothelial cells (HO-1)
[C-]#[O+] [CO, carbon monoxide] | 43.6 ± 7.57 pmol/mg/h | 1.8±3.4% | 8.4±5.3% | about 0.0044 g CO/100 g medium |  |  |  | 
C=CC1=C(C)c2cc3[n-]c(cc4[n-]c(cc5nc(cc1n2)C(C)=C5C=C)c(C)c4CCC(=O)O)c(CCC(=O)O)c3C.[Fe+2] [FePPIX, iron protoporphyrin] |  |  |  |  | Neither SnPPIX or FePPIX treatment influenced C3 deposition | did not influence this Ab response |  | 
C=Cc1c2[n-]c(c1C)/C=c1\[n-]/c(c(C)c1C=C)=C\c1[n-]c(c(CCC(=O)O)c1C)C=c1[n-]/c(c(C)c1CCC(=O)O)=C\2.[Sn+4] [SnPPIX, tin protoporphyrin IX] |  |  |  |  | Neither SnPPIX or FePPIX treatment influenced C3 deposition | did not influence this Ab response | 32.37 ± 7.23 pmol/mg/h | up-regulated the expression of HO-1
